Where two headings read alike, the source gives them in different places. Peptide text beside a SMILES is read from it. * marks the point of attachment. Cbz = O=C(OCc1ccccc1)*
Tests used:
[1] = biological target: T1, β5i subunit of isolated human 20S proteasome (Homo sapiens, UniProt P28062); experiment: Proteasome inhibition assay (20 S Proteasome Assay Kit, Suc‐LLVY‐AMC); type: biochemical; conditions: for inhibition at 1 µM: c = 1 µM, n=1, read-out: Inhibition iCP β5; for inhibition at 0.1 µM: c=100 nM, read-out: Rel. Inhibition β5i
T1 construct: purchased Enzo Life Sciences
Experimental: (§1) Proteasome inhibition assay. […] The 20 S Proteasome Assay Kit for Drug Discovery was used according to the supplier's protocol using Suc‐LLVY‐AMC (β5), Bz‐VGR‐AMC (β2) or Z‐LLE‐AMC (β1) as substrates (Enzo Life Sciences). Single point measurements of residual activity of proteasome activity were performed at a final concentration of 100 nM (n=3, β5c, β5i) or 1 μM (n=1, β1c, β2c, β5c, β5i, SI chapter 2a, Table S1). […] Inhibitors were prepared in 2‐fold concentration (cfinal=100 nM) and added to proteasomes (mfinal=200 ng/well). After 30 min incubation, substrate was added (cfinal=100 μM), incubated for 60 minutes and fluorescence was read using a Tecan M1000 microplate reader. […] IC50 values were determined from technical duplicates as mean value of three independent experiments.

[2] = biological target: T2, β5c subunit of isolated human 20S proteasome (Homo sapiens, UniProt P28074); experiment: as above; type: biochemical; conditions: for inhibition at 1 µM: read-out: Inhibition cCP β5; for inhibition at 0.1 µM: read-out: Rel. Inhibition β5c
T2 construct: purchased Enzo Life Sciences
Experimental: as §1

[3] = biological target: T3, β1c subunit of isolated human 20S proteasome (Homo sapiens, UniProt P28072); experiment: Proteasome inhibition assay (20 S Proteasome Assay Kit, Z‐LLE‐AMC); type: biochemical; conditions: read-out: Inhibition cCP β1
T3 construct: purchased Enzo Life Sciences
Experimental: as §1

MV4‐11 cells = experiment: Cell viability endpoint assay (Celltiter Blue, 72 h); type: cell-based; conditions: for IC50: Homo sapiens, MV4-11, mean±SD from two independent experiments
Experimental: Cell lines. MV4‐11 (ACC 102), Jurkat (ACC 282) and THP‐1 (ACC 16) cells were obtained from DSMZ and maintained at 37 °C and 5 % CO2 at densities between 0.2–1×10^6 cells per mL in RMPI‐1640 medium supplemented with 10 % FBS, L‐glutamine (2 mM) and penicillin/streptomycin.
Cell viability endpoint assay. For the determination of cytotoxicity of proteasome inhibitors 50.000 cells per well were plated in 90 μl RPMI‐1640 medium supplemented with 0.1 % FBS and incubated overnight at 37 °C and 5 % CO2. Inhibitors were serially diluted in RPMI‐1640 medium as 10‐fold stocks and added to cells giving the final concentration (1 nM to 10 μM, Figure S2–S4) and incubated for 72 h at 37 °C and 5 % CO2. Cell viability was determined using the Celltiter Blue assay (Promega) by adding 20 μl of reagent, incubation for 120 minutes at 37 °C and 5 % CO2 and fluorescent read‐out using a Tecan M1000 microplate reader. Dose‐response curves were fitted to the equation “Y=Bottom+(Top‐Bottom)/(1+10^(X−L°^gIC50))” using GraphPad Prism 7.02. IC50 values are determined from technical triplicates as mean value of two independent experiments. Standard deviations (Table S1) as well as dose response curves (SI chapter 2b) are given in the supplementary information.

[4] = biological target: T4, β2c subunit of isolated human 20S proteasome (Homo sapiens, UniProt Q99436); experiment: Proteasome inhibition assay (20 S Proteasome Assay Kit, Bz‐VGR‐AMC); type: biochemical; conditions: c = 1 µM, n=1; read-out: Inhibition cCP β2
T4 construct: purchased Enzo Life Sciences
Experimental: Proteasome inhibition assay. Bortezomib (Selleckchem) and carfilzomib (MedChemExpress) were purchased and used without further purification. The 20 S Proteasome Assay Kit for Drug Discovery was used according to the supplier's protocol using Suc‐LLVY‐AMC (β5), Bz‐VGR‐AMC (β2) or Z‐LLE‐AMC (β1) as substrates (Enzo Life Sciences). Single point measurements of residual activity of proteasome activity were performed at a final concentration of 100 nM (n=3, β5c, β5i) or 1 μM (n=1, β1c, β2c, β5c, β5i, SI chapter 2a, Table S1). […] Inhibitors were prepared in 2‐fold concentration (cfinal=100 nM) and added to proteasomes (mfinal=200 ng/well). After 30 min incubation, substrate was added (cfinal=100 μM), incubated for 60 minutes and fluorescence was read using a Tecan M1000 microplate reader. Dose‐response curves were fitted to the equation Y=100/(1+10^((L°^gIC50−X)*HillSl°^pe)) using GraphPad Prism 7.02. IC50 values were determined from technical duplicates as mean value of three independent experiments.

inhibition at 1 µM [1] [%]	inhibition at 0.1 µM [1] [%]	inhibition at 1 µM ([2]; c = 1 µM, n=1) [%]	inhibition at 0.1 µM ([2]; c=100 nM) [%]	inhibition at 1 µM ([3]; c = 1 µM, n=1) [%]	IC50 (MV4‐11 cells) [nM]	inhibition at 1 µM [4] [%]	IC50 MV4‐11 (MV4‐11 cells; mean±SD from two independent experiments)	Structure (SMILES)	inhibition at 1 µM [2] [%]	inhibition at 0.1 µM [2] [%]	inhibition at 1 µM [3] [%]
16	9	53	20	-33	26 ± 8	4	–	Cc1ccc(NC(=O)C(=O)[C@H](CC(C)C)NC(=O)[C@H](CC(C)C)NC(=O)[C@H](CC(C)C)NC(=O)OCc2ccccc2)c(C)c1Oc1ccccc1 [Compound 12, Benzyl((S)‐1‐(((S)‐1‐(((S)‐1‐((2,4‐dimethyl‐3‐phenoxyphenyl)amino)‐5‐methyl‐1,2‐dioxo‐hexan‐3‐yl)amino)‐4‐methyl‐1‐oxopentan‐2‐yl)amino)‐4‐methyl‐1‐oxopentan‐2‐yl)carbama‐te]	–	–	–
15	28	69	49	-4	23 ± 2	4	–	Cc1ccc(NC(=O)C(=O)[C@H](CC(C)C)NC(=O)[C@H](CC(C)C)NC(=O)[C@H](CC(C)C)NC(=O)OCc2ccccc2)cc1Oc1ccccc1 [Compound 13, Benzyl((S)‐4‐methyl‐1‐(((S)‐4‐methyl‐1‐(((S)‐5‐methyl‐1‐((4‐methyl‐3‐phenoxyphenyl)‐amino)‐1,2‐dioxohexan‐3‐yl)amino)‐1‐oxopentan‐2‐yl)amino)‐1‐oxopentan‐2‐yl)carbamate]	–	–	–
28	11	43	6	28	> 1000	-10	inactive	CC(C)C[C@@H](C=O)NC(=O)[C@H](CC(C)C)NC(=O)[C@H](CC(C)C)NC(=O)Cn1cnc2ccccc2c1=O [Compound 22, (S)‐4‐Methyl‐N‐((S)‐4‐methyl‐1‐(((S)‐4‐methyl‐1‐oxopentan‐2‐yl)amino)‐1‐oxopentan‐2‐yl)‐2‐(2‐(4‐oxoquinazolin‐3(4H)‐yl)acetamido)pentanamide]	–	–	–
48	19	75	26	-2	16 ± 1	9	–	Cc1ccc(Oc2ccccc2)cc1NC(=O)C(=O)[C@H](CC(C)C)NC(=O)[C@H](CC(C)C)NC(=O)[C@H](CC(C)C)NC(=O)OCc1ccccc1 [Compound 15, Benzyl((S)‐4‐methyl‐1‐(((S)‐4‐methyl‐1‐(((S)‐5‐methyl‐1‐((2‐methyl‐5‐phenoxyphenyl)‐amino)‐1,2‐dioxohexan‐3‐yl)amino)‐1‐oxopentan‐2‐yl)amino)‐1‐oxopentan‐2‐yl)carbamate]	–	–	–
22	40	38	41	-24	68 ± 9	-7	–	CC(C)C[C@H](NC(=O)OCc1ccccc1)C(=O)N[C@@H](CC(=O)OC(C)(C)C)C(=O)N[C@@H](CC(C)C)C(=O)C(=O)Nc1ccc(Oc2ccccc2)cc1 [Compound 20, tert ‐Butyl‐(S)‐3‐((S)‐2‐(((benzyloxy)carbonyl)amino)‐4‐methylpentanamido)‐4‐(((S)‐5‐methyl‐1,2‐dioxo‐1‐((4‐phenoxyphenyl)amino)hexan‐3‐yl)amino)‐4‐oxobutanoate]	–	–	–
24	4	51	25	-38	25 ± 5	17	–	Cc1ccc(NC(=O)C(=O)[C@H](CC(C)C)NC(=O)[C@H](CC(C)C)NC(=O)[C@H](CC(C)C)NC(=O)c2cc(Cl)ccc2Cl)c(C)c1 [Compound 26, 2,5‐Dichloro‐N‐((S)‐1‐(((S)‐1‐(((S)‐1‐((2,4‐dimethylphenyl)amino)‐5‐methyl‐1,2‐dioxohexan‐3‐yl)amino)‐4‐methyl‐1‐oxopentan‐2‐yl)amino)‐4‐methyl‐1‐oxopentan‐2‐yl)‐benzamide]	–	–	–
17	–	52	33	-4	297 ± 27	11	–	Cc1cc(C)c(Oc2ccccc2)cc1NC(=O)C(=O)[C@H](CC(C)C)NC(=O)[C@H](CC(=O)OC(C)(C)C)NC(=O)[C@H](CC(C)C)NC(=O)OCc1ccccc1 [Compound 21, tert ‐Butyl(S)‐3‐((S)‐2‐(((benzyloxy)carbonyl)amino)‐4‐methylpentanamido)‐4‐(((S)‐1‐((2,4‐dime‐thyl‐5‐phenoxyphenyl)amino)‐5‐methyl‐1,2‐dioxohexan‐3‐yl)amino)‐4‐oxobutanoate]	–	–	–
76	48	91	57	12	46 ± 6	-8	–	CC(C)C[C@H](NC(=O)OCc1ccccc1)C(=O)N[C@@H](CC(=O)OC(C)(C)C)C(=O)N[C@@H](CC(C)C)C(=O)C(=O)Nc1ccccc1 [Compound 16, tert ‐Butyl‐(S)‐3‐((S)‐2‐(((benzyloxy)carbonyl)amino)‐4‐methylpentanamido)‐4‐(((S)‐5‐methyl‐1,2‐dioxo‐1‐(phenylamino)hexan‐3‐yl)amino)‐4‐oxobutanoate]	–	–	–
64	4	75	30	19	145 ± 23	49	–	CC(C)C[C@@H](C=O)NC(=O)[C@H](CC(C)C)NC(=O)[C@H](CC(C)C)NC(=O)c1cnccn1 [Compound 23, N ‐((S)‐4‐Methyl‐1‐(((S)‐4‐methyl‐1‐(((S)‐4‐methyl‐1‐oxopentan‐2‐yl)amino)‐1‐oxopentan‐2‐yl)amino)‐1‐oxopentan‐2‐yl)pyrazine‐2‐carboxamide]	–	–	–
7	8	32	12	-7	203 ± 22	-4	–	CC(C)C[C@H](NC(=O)OCc1ccccc1)C(=O)N[C@@H](CC(C)C)C(=O)N[C@@H](CC(C)C)C(=O)C(=O)Nc1ccccc1Oc1ccccc1 [Compound 8, Benzyl‐((S)‐4‐methyl‐1‐(((S)‐4‐methyl‐1‐(((S)‐5‐methyl‐1,2‐dioxo‐1‐((2‐phenoxyphenyl)‐amino)hexan‐3‐yl)amino)‐1‐oxopentan‐2‐yl)amino)‐1‐oxopentan‐2‐yl)carbamate]	–	–	–
52	35	81	26	-10	47 ± 5	6	–	Cc1ccc(NC(=O)C(=O)[C@H](CC(C)C)NC(=O)[C@H](CC(=O)OC(C)(C)C)NC(=O)[C@H](CC(C)C)NC(=O)c2cc(Cl)ccc2Cl)c(C)c1 [Compound 28, tert ‐Butyl (S)‐3‐((S)‐2‐(2,5‐dichlorobenzamido)‐4‐methylpentanamido)‐4‐(((S)‐1‐((2,4‐dimethyl‐phenyl)amino)‐5‐methyl‐1,2‐dioxohexan‐3‐yl)amino)‐4‐oxobutanoate]	–	–	–

Structure (SMILES)	inhibition at 1 µM [1] [%]	inhibition at 0.1 µM [1] [%]	inhibition at 1 µM ([2]; c = 1 µM, n=1) [%]	inhibition at 0.1 µM ([2]; c=100 nM) [%]	inhibition at 1 µM ([3]; c = 1 µM, n=1) [%]	IC50 (MV4‐11 cells) [nM]	inhibition at 1 µM [4] [%]	IC50 MV4‐11 (MV4‐11 cells; mean±SD from two independent experiments)	inhibition at 1 µM [2] [%]	inhibition at 0.1 µM [2] [%]	inhibition at 1 µM [3] [%]
CC(C)C[C@@H](C=O)NC(=O)[C@H](CC(C)C)NC(=O)[C@H](CC(C)C)NC(=O)OCc1ccccc1 [Compound 4, MG132, reference compound] (Cbz-Leu-Leu-Leu-aldehyde)	–	–	–	–	–	131 ± 12	21	–	82	43	27
